Source: paper PMC9861623, “New Ferulic Acid and Amino Acid Derivatives with Increased Cosmeceutical and Pharmaceutical Potential” (Pharmaceutics, 2022)
Several values for one entry are separate records, joined by “and”; a condition that tells them apart may be missing. Identical values can stand only once.

Columns and labels:
[1] = parameters: method as in PMID 20692328; conditions: cited from earlier work
[2] = n-octanol/water partition coefficient by shake flask method; type: physicochemical; conditions: for log PO/W: n-octanol/water, shake flask, 25 °C
Experimental: The n-octanol/water partition coefficient (log PO/W) was determined for ferulic acid and its derivatives by shake flask method. n-Octanol saturated with water and water saturated with n-octanol were prepared at 25 °C, 24 h prior to their use in the experiments. Then, a sample of 10 mg of compound was weighed with the accuracy of 0.01 mg in a 16 cm^3 screwed vial and dissolved in 5 cm^3 of n-octanol. Next, 5 cm^3 of water was added to the vial. The resulting two-phase mixture was kept in water bath shaker at 25 °C for 2 h and was strongly shaken to reach the partition equilibrium of the compound between the phases. Then the mixture was left unshaken for 30 min and 1.0 cm^3 of water phase was carefully taken out to centrifuge tube. The sample was next centrifuged for 10 min at 7500 rpm at 25 °C to ensure the most precise phase separation. The concentration of compound in water phase was then determined using HPLC method. The partition coefficient, log PO/W was calculated according to the formula: logPO/W=logC0V0−CWVW/CWVW where: C0—initial concentration of the compound in n-octanol, calculated based on the weighed mass of compound, mg·cm^−^3; V0—volume of n-octanol, cm^3; CW—concentration of the compound in water after partition equilibrium, mg·cm^−^3; VW—volume of water, cm^3.

[3] = DPPH radical scavenging assay of the compounds
Experimental: (§1) To determine the antioxidant capacity of ferulic acid and its derivatives the DPPH method was used. The analyses were performed using the Hitachi UV-Vis Spectrophotometer U-5100 at the wavelength λ = 517 nm. Trolox (6-hydroxy-2,5,7,8-tetramethylchroman-2-carboxylic acid) was used as a reference substance. The antioxidant activity was expressed as %RSA and mmol Trolox dm^−3. […]. Blank samples without antioxidant were prepared in the same way. The tubes were wrapped in aluminum foil and were sealed with a stopper and then incubated for 10 min at room temperature. After this time, spectrophotometric measurements were carried out in triplicate. For determination of antioxidant activity of the acceptor fluid after 24 h of permeation and solutions obtained by extraction of the skin obtained after penetration study, 0.15 mL samples of each solutions were separately added to 2.85 mL of DPPH solution and spectrophotometric measurements were performed. The antioxidant activity was expressed as mmol Trolox·dm^−3.

[4] = Skin permeation in Franz diffusion cells; type: in vitro ADME, pig; conditions: 24 h, 10 mg as FA applied
Experimental: In the experiment, abdominal porcine skin coming from the local slaughterhouse was used. Pig skin was chosen because of its similar permeability to human skin [34, 35]. The fresh abdominal porcine skin was washed several times in PBS buffer pH 7.4. The skin of 0.5 mm in thickness was dermatomed and divided into 2 cm × 2 cm pieces. The skin samples were wrapped in aluminum foil and stored at −20 °C until use, not longer than 3 months. According to Badran et al., this storage time at this temperature is safe to keep skin barrier properties. Immediately before the experiment, the skin samples were slowly thawed at room temperature for 30 min and then were hydrated by PBS pH 7.4 [37, 38, 39, 40]. Such prepared skin was mounted on donor chamber. Only the undamaged skin pieces with an even thickness were chosen for experiments. The integrity of the skin was checked by impedance measurement using an LCRmeter4080 (Conrad Electronic, Hirschau, Germany), operated in parallel mode at an alternating frequency of 120 Hz (error at kΩ values < 0.5%). The tips of measuring probes were immersed in the donor and acceptor chamber containing PBS (pH 7.4), as described previously. Only skin samples of impedance > 3 kΩ were applied as such impedance is similar to the electrical resistance of human skin [42].
The concentration of FA and its derivatives in the acceptor fluid and in the fluid obtained by skin extraction after permeation experiment was assessed using liquid chromatography system (Knauer, Berlin, Germany) consisting of a model 2600 UV detector, Smartline model 1050 pump and Smartline model 3950 autosampler. HPLC was controlled by ClarityChrom 2009 software. The detector was operated at 280 nm. The separations were performed on 125 mm × 4 mm ID chromatographic column filled with Hyperisil ODS (C18), particle size 5 µm, in isocratic mode. The mobile phase consisted of acetonitrile, 1% acetic acid, and MeOH (47/47/6 v/v/v) and was pumped at flow rate of 1 mL min^−1. The column temperature was set at 25 °C, and the injection volume was 20 µL.
(§2) The permeation experiments were performed using Franz diffusion cells (Phoenix DB-6, ABL&E-JASCO, Wien, Austria). The diffusion was 1 cm^2. The volume of the acceptor chamber was 8 mL. This chamber was filled with PBS solution (pH 7.4). During experiment, a constant temperature of 37.0 ± 0.5 °C was maintained in each diffusion unit. The acceptor chamber content was stirred with a magnetic stirring bar at the same speed for all cells. The prepared pig skin was mounted on each donor chamber. As previously mentioned, only undamaged skin pieces with an even thickness were chosen for experiments. Thereafter, the hydrogel or emulsion vehicle/preparation in 1 g portion was put on the skin in donor cells. For comparison, 1 mL ethanolic solution containing either FA or its derivatives was applied to another donor chamber. The amount of the FA and its derivatives applied on the skin expressed as the mass of ferulic acid was 0.01 g and was the same for each carrier. The penetration experiments were carried out for 24 h. The samples were collected after 1 h, 2 h, 3 h, 4 h, 5 h, 6 h, 8 h, and 24 h. Aliquots of the acceptor fluid (0.5 mL) were withdrawn and to each acceptor chamber the same volume of fresh PBS solution was added. The FA and its derivatives’ concentrations in the acceptor fluid were measured by HPLC method (Section 2.6.2). The cumulative mass (µg·cm^−2) and penetration rate (µg·cm^−2·h^−1) were calculated. The acceptor fluid collected after 24 h of permeation was also measured for antioxidant activity and total polyphenol content (as described in Section 2.5.1 and Section 2.5.2).

[5] = DPPH antioxidant activity of acceptor fluid after 24 h permeation; parameters: species or system pig; conditions: after 24 h penetration
Experimental: as §1, §2

[6] = DPPH antioxidant activity of solution obtained after skin extraction; parameters: species or system pig; conditions: after 24 h penetration
Experimental: as §1
The accumulation of the FA and its derivatives in the skin after 24 h permeation process through the skin were determined using a modification of the methods described by Janus et al. and Taokaew et al.. After 24 h of permeation experiment, the skin samples were removed from the Franz diffusion cell, washed three times with 0.5% sodium lauryl sulfate solution and dried at room temperature. Next, after cutting out the diffusion area of each skin sample, the samples were immersed in 2 mL of absolute ethanol and continuously stirred at 300 rpm at room temperature for 24 h. The samples were then centrifuged, and clear solutions were collected and analyzed by HPLC method for the determination of FA and its derivatives. The accumulation of the active substance in the skin was calculated by dividing the amount of the drug remaining in the skin by a mass of skin sample and was expressed in mass active substance per mass of the skin (µg g^−1). For solution obtained after skin extraction, the antioxidant activity and total polyphenol content were also determined (as described in Section 2.5.1 and Section 2.5.2).

[7] = Thermogravimetric (TG) analysis, thermal stability; type: physicochemical; conditions: air atmosphere, 10 °C·min^−1; for Td onset, the onset of decomposition: TG; for Td max, temperature of the fastest mass loss of the sample: TG/DTG
Experimental: Samples of 2–5 mg, loaded in aluminium crucibles, were heated from 30 °C to 600 °C at the heating rate of 10 °C·min^−1, in the air atmosphere (25 mL·min^−1) with nitrogen flow (10 mL·min^−1) as the purge gas.

[8] = test system: UVB irradiated human melanocytes; parameters: method as in PMID 19274591; conditions: cited from earlier work
[9] = molar ratio antioxidant:DPPH 0.1, 10 min
[10] = molar ratio antioxidant:DPPH 1.0, 10 min
[11] = molar ratio antioxidant:DPPH 2.0, 10 min
[12] = from solution in 70% (v/v) ethanol

| SMILES | skin permeation compared with pure FA [1] | log PO/W [2] | Antioxidant activity %RSA [3, 9] | Antioxidant activity, Trolox equivalents [3, 9] | Antioxidant activity %RSA [3, 10] | Antioxidant activity, Trolox equivalents [3, 10] | Antioxidant activity %RSA [3, 11] | Antioxidant activity, Trolox equivalents [3, 11] | Cumulative Permeation Mass ([4]; from emulsion) | Cumulative Permeation Mass ([4]; from hydrogel) | Cumulative Permeation Mass [4, 12] | DPPH antioxidant activity of the acceptor fluid ([5]; emulsion) | DPPH antioxidant activity of the acceptor fluid ([5]; ethanol solution) | DPPH antioxidant activity of the acceptor fluid ([5]; hydrogel) | DPPH antioxidant activity of the solution obtained after skin extraction ([6]; emulsion) | DPPH antioxidant activity of the solution obtained after skin extraction ([6]; ethanol solution) | DPPH antioxidant activity of the solution obtained after skin extraction ([6]; hydrogel) | Td onset, the onset of decomposition [7] | Td max, temperature of the fastest mass loss of the sample [7] | other results |
| --- | --- | --- | --- | --- | --- | --- | --- | --- | --- | --- | --- | --- | --- | --- | --- | --- | --- | --- | --- | --- |
| COc1cc(/C=C/C=O)ccc1O [CD, coniferyl aldehyde] | permeated the skin to a higher degree than pure FA |  |  |  |  |  |  |  |  |  |  |  |  |  |  |  |  |  |  |  |
| CCCOC(=O)CN.COc1cc(/C=C/C(=O)O)ccc1O [GPr[FA], glycine propyl ester ferulate] |  | 0.582 ± 0.019 | 17.6 ± 0.001 %RSA and 17.6 ± 0.001 a %RSA | 0.099 ± 0.001 mmol Trolox dm^−3 and 0.099 ± 0.001 a mmol Trolox dm^−3 | 78.0 ± 0.001 b %RSA | 0.681 ± 0.001 b mmol Trolox dm^−3 | 86.6 ± 0.001 %RSA and 86.6 ± 0.001 b %RSA | 0.764 ± 0.001 mmol Trolox dm^−3 and 0.764 ± 0.001 b mmol Trolox dm^−3 | 101.70 ± 26.47 a µg FA·cm^−2 | 268.16 ± 12.71 a µg FA·cm^−2 | 378.26 ± 2.29 a µg FA·cm^−2 | 0.059 ± 0.010 a mmol Trolox dm^−3 | 0.097 ± 0.021 b mmol Trolox dm^−3 | 0.069 ± 0.002 a mmol Trolox dm^−3 | 0.235 ± 0.037 a mmol Trolox dm^−3 | 0.257 ± 0.026 a mmol Trolox dm^−3 | 0.298 ± 0.009 a mmol Trolox dm^−3 | 129.6 °C | 145.3 °C | Share of compound partitioned to n-octanol ([2]; from log PO/W): 79% |
| CCOC(=O)/C=C/c1ccc(O)c(OC)c1 [FAEE, ferulic acid ethyl ester] | permeated the skin to a higher degree than pure FA |  |  |  |  |  |  |  |  |  |  |  |  |  |  |  |  |  |  | production of ROS [8]: reduced the production of ROS |
| CCCOC(=O)[C@@H](N)CC(C)C.COc1cc(/C=C/C(=O)O)ccc1O [LPr[FA], L-leucine propyl ester ferulate] |  | 0.454 ± 0.009 | 17.6 ± 0.001 %RSA and 17.6 ± 0.001 a %RSA | 0.098 ± 0.001 mmol Trolox dm^−3 and 0.098 ± 0.001 a mmol Trolox dm^−3 | 79.5 ± 0.001 b %RSA | 0.696 ± 0.001 b mmol Trolox dm^−3 | 87.8 ± 0.001 %RSA and 87.8 ± 0.001 b %RSA | 0.776 ± 0.001 mmol Trolox dm^−3 and 0.776 ± 0.001 b mmol Trolox dm^−3 | 119.29 ± 19.72 a µg FA·cm^−2 | 267.48 ± 24.57 a µg FA·cm^−2 | 415.12 ± 8.71 µg FA·cm^−2 and 415.12 ± 8.71 b µg FA·cm^−2 | 0.053 ± 0.005 mmol Trolox dm^−3 and 0.053 ± 0.005 a mmol Trolox dm^−3 | 0.098 ± 0.011 mmol Trolox dm^−3 and 0.098 ± 0.011 a mmol Trolox dm^−3 | 0.063 ± 0.009 mmol Trolox dm^−3 and 0.063 ± 0.009 a mmol Trolox dm^−3 | 0.257 ± 0.014 ab mmol Trolox dm^−3 | 0.255 ± 0.038 a mmol Trolox dm^−3 | 0.298 ± 0.009 mmol Trolox dm^−3 and 0.320 ± 0.030 ab mmol Trolox dm^−3 | 126.0 °C | 156.0 °C | DPPH antioxidant activity of the solution obtained after skin extraction ([6]; ethanol solution, listed as Leu[FA]): 0.255 ± 0.038 mmol Trolox dm^−3 |
| COc1cc(/C=C/CO)ccc1O [CA, coniferyl alcohol] | permeated the skin to a higher degree than pure FA |  |  |  |  |  |  |  |  |  |  |  |  |  |  |  |  |  |  |  |
